Test results as given in patent publication US20160008376A1, “Compositions, Methods and Uses for Treating Gender-Biased Immune Disorders” (Biocopea Limited, priority 2014, published 2016).

System: antibodies directed to the CH47 region of the P1/P2 ribosomal protein
Experiment: Hormone added to sera of immunized female mice, antibody signal for the CH47 peptide
Format: binding
Conditions: overall
Procedure: In a second series of experiments, Testosterone (0 ng/mL, 0.5 ng/mL, 1 ng/mL, 2 ng/mL, and 4 ng/mL) or Progesterone (0 ng/mL, 2 ng/mL, 4 ng/mL, 8 ng/mL, and 14 ng/mL) was added to the sera of female mice immunized with a variety of different Chagas peptides (Formulation 1 or 2) that either include (B) or excluded (A) specifically peptide CH47. […] At low hormone concentrations there was an increase in the antibody signal with a subsequent decrease as the concentration of hormone further increased.

SMILES | decrease in the IgG response (hormone 0-14 ng/mL) [%] | decrease in the antibody response (hormone 0-4 ng/mL) [%]
CC(=O)[C@H]1CC[C@H]2[C@@H]3CCC4=CC(=O)CC[C@]4(C)[C@H]3CC[C@]12C [Progesterone, pregn-4-ene-3,20-dione] | 26.2 | –
C[C@]12CC[C@H]3[C@@H](CCC4=CC(=O)CC[C@@]43C)[C@@H]1CC[C@@H]2O [Testosterone] | – | 24.4
